Laboratory results taken from BindingDB's records for doi:10.3109/14756366.2011.636362 (Aristotle University of Thessaloniki, 2013).

The molecules below were run against Gag-Pol polyprotein (Human immunodeficiency virus type 1 group M subtype B (isolate HXB2), UniProt P04585) (assay: HIV-1 RT Activity Assay). Settings: pH 7.8; 37 °C.
Method: HIV-1 Reverse Transcriptase Activity was measured using the colorimetric photometric immunoassay kit provided by Roche. Estimation of RT activity is achieved by quantification of the DNA synthesized by RT in a known period of time. Incubation was performed for 2 h at 37°C. PolyA:oligodT RNA template:primer hybrid at a concentration of 2.2 μg/ml was incubated with 20 nMof purified recombinant HIV-1 reverse transcriptase in a 50 μL incubation mixture containing 50 mM Tris-HCl pH 7.8, 160 mM KCl, 11 mM MgCl2, 5.3 mM DTT, 0.5 mM EDTA, 0.3% Triton-X 100 and 10 μM dTTP (unless otherwise mentioned) in the presence of digoxigeninconjugated dUTP (dUTP-DIG) and biotin-conjugateddUTP (dUTP-biotin). In a following step, the synthesised biotin-DIG-labelled DNA was bound to the surface of streptavidin-coated ELISA-plate wells. After washing out the unbound material, an antibody to digoxigenin, conjugated to peroxidase (anti-DIG-POD), was added and bound to the digoxigenin-labelled nucleotides. After a washing step and addition of the appropriate substrate, peroxidase catalyzed the transformation of the substrate, ABTS, to a yellow coloured reaction product. 15 min after ABTS addition, the coloured product was measured using a microtitre plate (ELISA) reader. For the estimation of inhibitory action of the compounds, reverse transcriptase was incubated in the presence of the potential inhibitor for 45 min at room temperature before addition of its substrates (pre-incubation).

Question: For `O=C1CSC(c2c(Cl)cccc2Cl)N1c1nc2c(Cl)cccc2s1` (stereo not given) [3-(4-Chlorobenzo[d]thiazol-2-yl)-2-(2,6-dichlorophenyl)thiazolidin-4-one (6)], which IC50 is on record?
Answer: > 40 µM

Question: `O=C1CSC(c2c(F)cccc2F)N1c1nc2c(Cl)cccc2s1` (stereo not given) [3-(4-Chlorobenzo[d]thiazol-2-yl)-2-(2,6-difluorophenyl)thiazolidin-4-one (8)] was tested. Which IC50 did it give?
Answer: > 40 µM

Question: For `O=C1CSC(c2c(F)cccc2Cl)N1c1nc2c(Cl)cccc2s1` (stereo not given) [3-(4-Chlorobenzo[d]thiazol-2-yl)-2-(2-chloro-6-fluorophenyl)thiazolidin-4-one (7)], which IC50 is on record?
Answer: 0.04 µM

Question: `COc1cccc2sc(N3C(=O)CSC3c3c(Cl)cccc3Cl)nc12` (stereo not given) [3-(4-Methoxybenzo[d]thiazol-2-yl)-2-(2,6-dichlorophenyl)thiazolidin-4-one (15)] was tested. Which IC50 did it give?
Answer: 3 µM

Question: Which IC50 does the source give for `COc1cccc2sc(N3C(=O)CSC3c3c(F)cccc3Cl)nc12` (stereo not given) [3-(4-Methoxybenzo[d]thiazol-2-yl)-2-(2-chloro-6-fluorophenyl)thiazolidin-4-one (16)] here?
Answer: > 40 µM

Question: `O=C1CSC(c2c(Cl)cccc2Cl)N1c1nc2ccc(Cl)cc2s1` (stereo not given) [3-(6-Chlorobenzo[d]thiazol-2-yl)-2-(2,6-dichlorophenyl)thiazolidin-4-one (3)] was tested. Which IC50 did it give?
Answer: > 40 µM

Question: For `O=C1CSC(c2c(F)cccc2Cl)N1c1nc2ccc(Cl)cc2s1` (stereo not given) [3-(6-Chlorobenzo[d]thiazol-2-yl)-2-(2-chloro-6-fluorophenyl)thiazolidin-4-one (4)], which IC50 is on record?
Answer: > 40 µM

Question: How did the IC50 turn out when `CCOc1ccc2nc(N3C(=O)CSC3c3c(F)cccc3F)sc2c1` (stereo not given) [3-(6-Ethoxybenzo[d]thiazol-2-yl)-2-(2,6-difluorophenyl)thiazolidin-4-one (19)] was run?
Answer: > 40 µM

Question: `CCOc1ccc2nc(N3C(=O)CSC3c3c(F)cccc3Cl)sc2c1` (stereo not given) [3-(6-Ethoxybenzo[d]thiazol-2-yl)-2-(2-chloro-6-fluorophenyl)thiazolidin-4-one (18)] was tested. Which IC50 did it give?
Answer: 3.4 µM

Question: Which IC50 does the source give for `O=C1CSC(c2c(Cl)cccc2Cl)N1c1nc2ccc(F)cc2s1` (stereo not given) [3-(6-Fluorobenzo[d]thiazol-2-yl)-2-(2,6-dichlorophenyl)thiazolidin-4-one (9)] here?
Answer: 0.25 µM

Question: With `COc1ccc2nc(N3C(=O)CSC3c3c(Cl)cccc3Cl)sc2c1` (stereo not given) [3-(6-Methoxybenzo[d]thiazol-2-yl)-2-(2,6-dichlorophenyl)thiazolidin-4-one (12)] as the molecule, how does the IC50 read?
Answer: > 40 µM

Question: Which IC50 does the source give for `COc1ccc2nc(N3C(=O)CSC3c3c(F)cccc3F)sc2c1` (stereo not given) [3-(6-Methoxybenzo[d]thiazol-2-yl)-2-(2,6-difluorophenyl)thiazolidin-4-one (14)] here?
Answer: > 40 µM

Question: `COc1ccc2nc(N3C(=O)CSC3c3c(F)cccc3Cl)sc2c1` (stereo not given) [3-(6-Methoxybenzo[d]thiazol-2-yl)-2-(2-chloro-6-fluorophenyl)thiazolidin-4-one (13)] was tested. Which IC50 did it give?
Answer: > 40 µM

Question: With `O=C1CSC(c2c(F)cccc2F)N1c1nc2ccccc2s1` (stereo not given) [3-(Benzo[d]thiazol-2-yl)-2-(2,6-difluorophenyl)thiazolidin-4-one (1)] as the molecule, how does the IC50 read?
Answer: > 40 µM

Question: How did the IC50 turn out when `O=C1CSC(c2c(F)cccc2Cl)N1c1nc2ccccc2s1` (stereo not given) [3-(Benzo[d]thiazol-2-yl)-2-(2-chloro-6-fluorophenyl)thiazolidin-4-one (2)] was run?
Answer: > 40 µM
